Source: patent US8877741B2, “Pyrrolidine derivatives, pharmaceutical compositions and uses thereof” (Boehringer Ingelheim International GmbH, priority 2013, dated 2014)

Target: human ACC2 (Homo sapiens (Human), UniProt O00763)
Test: ACC2 assay, spectrophotometric 384 well assay (NADH-linked kinetic method)
Format: biochemical
Details: human ACC2 construct lacking the 128 N-terminal amino acids; coupled lactate dehydrogenase/pyruvate kinase reaction, 340 nm, 25° C.
Summary of the method: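 N-terminally truncated human ACC2 (lacking 128 residues), expressed in insect cells, was coupled to pyruvate kinase/lactate dehydrogenase, with NADH and acetyl-CoA at 2000 μM and ATP at 500 μM final. The OD340 decrease was followed over 15 min at 25 °C. Slopes were normalised to vehicle and no-acetyl-CoA controls, and IC50 came from four-parameter regression.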

human ACC2, sequence (O00763 129-2458): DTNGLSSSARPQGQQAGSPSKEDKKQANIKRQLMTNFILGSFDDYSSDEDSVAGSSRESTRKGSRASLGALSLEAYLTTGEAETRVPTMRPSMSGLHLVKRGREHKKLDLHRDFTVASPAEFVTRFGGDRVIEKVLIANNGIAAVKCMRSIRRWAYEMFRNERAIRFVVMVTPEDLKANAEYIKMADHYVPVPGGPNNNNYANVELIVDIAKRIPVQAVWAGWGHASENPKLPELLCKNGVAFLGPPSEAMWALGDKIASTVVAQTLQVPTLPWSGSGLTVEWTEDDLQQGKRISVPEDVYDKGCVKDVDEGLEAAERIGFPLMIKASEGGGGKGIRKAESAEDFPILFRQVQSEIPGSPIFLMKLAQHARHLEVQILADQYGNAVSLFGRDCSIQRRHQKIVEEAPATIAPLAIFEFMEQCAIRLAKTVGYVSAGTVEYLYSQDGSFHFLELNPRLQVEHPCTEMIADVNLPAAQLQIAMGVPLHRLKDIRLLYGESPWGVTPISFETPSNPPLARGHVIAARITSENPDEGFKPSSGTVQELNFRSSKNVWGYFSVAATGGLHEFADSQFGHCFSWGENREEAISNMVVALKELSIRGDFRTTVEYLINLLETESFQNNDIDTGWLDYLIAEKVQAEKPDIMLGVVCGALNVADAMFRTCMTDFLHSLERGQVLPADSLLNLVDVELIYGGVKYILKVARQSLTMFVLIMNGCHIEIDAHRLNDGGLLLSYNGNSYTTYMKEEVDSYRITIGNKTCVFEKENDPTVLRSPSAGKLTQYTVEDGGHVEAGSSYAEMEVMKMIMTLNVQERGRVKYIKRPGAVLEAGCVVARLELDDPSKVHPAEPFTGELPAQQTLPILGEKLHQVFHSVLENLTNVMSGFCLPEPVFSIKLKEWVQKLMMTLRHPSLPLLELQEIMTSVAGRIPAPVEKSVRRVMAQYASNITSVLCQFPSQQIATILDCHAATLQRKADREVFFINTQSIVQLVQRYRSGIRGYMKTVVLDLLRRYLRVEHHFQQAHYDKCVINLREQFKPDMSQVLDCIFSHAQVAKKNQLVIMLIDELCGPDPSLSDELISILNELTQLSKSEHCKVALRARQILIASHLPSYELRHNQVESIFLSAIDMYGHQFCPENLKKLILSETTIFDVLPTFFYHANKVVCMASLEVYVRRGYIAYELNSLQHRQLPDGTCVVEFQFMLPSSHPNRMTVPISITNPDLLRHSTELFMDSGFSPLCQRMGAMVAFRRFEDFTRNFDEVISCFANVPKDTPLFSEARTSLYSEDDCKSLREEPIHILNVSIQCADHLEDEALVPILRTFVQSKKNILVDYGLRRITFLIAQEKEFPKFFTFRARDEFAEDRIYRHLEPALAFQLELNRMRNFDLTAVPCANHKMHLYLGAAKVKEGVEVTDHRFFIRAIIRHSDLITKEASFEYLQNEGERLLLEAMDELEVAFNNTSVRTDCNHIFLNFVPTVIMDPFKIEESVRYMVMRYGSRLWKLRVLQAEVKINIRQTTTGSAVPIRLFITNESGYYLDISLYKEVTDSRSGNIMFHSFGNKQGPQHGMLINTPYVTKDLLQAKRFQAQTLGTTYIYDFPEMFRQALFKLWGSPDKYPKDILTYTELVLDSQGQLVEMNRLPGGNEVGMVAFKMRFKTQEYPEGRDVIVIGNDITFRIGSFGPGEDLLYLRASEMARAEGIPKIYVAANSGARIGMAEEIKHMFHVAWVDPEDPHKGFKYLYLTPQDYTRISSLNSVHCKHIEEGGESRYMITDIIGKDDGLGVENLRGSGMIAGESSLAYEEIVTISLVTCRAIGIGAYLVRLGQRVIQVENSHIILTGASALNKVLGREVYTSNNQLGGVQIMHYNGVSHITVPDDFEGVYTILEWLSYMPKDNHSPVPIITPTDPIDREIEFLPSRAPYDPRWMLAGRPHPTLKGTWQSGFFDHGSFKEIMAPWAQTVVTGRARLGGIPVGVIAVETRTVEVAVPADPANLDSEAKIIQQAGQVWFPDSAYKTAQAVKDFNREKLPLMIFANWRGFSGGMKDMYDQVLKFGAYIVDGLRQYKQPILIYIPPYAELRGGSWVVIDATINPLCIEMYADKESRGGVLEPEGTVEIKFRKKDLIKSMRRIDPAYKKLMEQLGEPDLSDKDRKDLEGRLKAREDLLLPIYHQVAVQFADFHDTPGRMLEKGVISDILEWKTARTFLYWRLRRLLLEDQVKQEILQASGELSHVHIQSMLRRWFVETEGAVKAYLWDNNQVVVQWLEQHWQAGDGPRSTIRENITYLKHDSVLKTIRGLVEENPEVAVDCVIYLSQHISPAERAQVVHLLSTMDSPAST

Compound | IC50 [nM]
CCN(CC)c1cccc(N2CC[C@@H](Oc3ccc([C@H](C)NC(C)=O)cc3)C2)n1 [Example 10.27] | 123
CC(=O)N[C@@H](C)c1ccc(O[C@@H]2CCN(c3cccc(N4CCC(C)(C)C4)n3)C2)cc1 [Example 10.48] | 256
CC(=O)N[C@@H](C)c1ccc(O[C@@H]2CCN(c3cccc(N(C)CC(C)C)n3)C2)cc1 [Example 10.36] | 399
CCC(COC)Oc1cc(N2CC[C@@H](Oc3ccc([C@H](C)NC(C)=O)cc3)C2)ccn1 (stereo partly shown) [Example 9.46] | 544
CC(=O)N[C@@H](C)c1ccc(O[C@@H]2CCN(c3nccc(N(C)C)c3F)C2)cc1 [Example 1.98] | 967
CC(=O)Nc1nc(C)c(C(=O)N[C@@H](C)c2ccc(O[C@@H]3CCN(c4cccc(C(F)(F)F)n4)C3)cc2)s1 [Example 1.45] | 64
COc1cnc(N2CC[C@@H](Oc3ccc([C@H](C)NC(C)=O)cc3)C2)c(Cl)c1 [Example 8.10] | 693
C[C@H](NC(=O)c1cnc(N)o1)c1ccc(OC2CCN(c3ccnc(OCC(F)F)c3)C2)cc1 (stereo partly shown) [Example 2.103] | 523
CCCOc1nccc(N2CC[C@@H](Oc3ccc([C@H](C)NC(C)=O)cc3)C2)c1Cl [Example 9.78] | 57
CC(=O)N[C@@H](C)c1ccc(O[C@@H]2CCN(c3cccc(N(C)C(C)C)n3)C2)cc1 [Example 10.31] | 314
CSc1ccc(N2CCC(Oc3ccc([C@H](C)NC(C)=O)cc3)C2)cn1 (stereo partly shown) [Example 1.83] | 2990
COC[C@@H]1CCCN1c1cccc(N2CC[C@@H](Oc3ccc([C@H](C)NC(C)=O)cc3)C2)n1 [Example 10.46] | 175
CC(=O)N[C@@H](C)c1ccc(O[C@@H]2CCN(c3cccc(N(C)C4CCOCC4)n3)C2)cc1 [Example 10.39] | 360
CC(=O)N[C@@H](C)c1ccc(OC2CCN(c3ccnc(OC(C)C)c3)C2)cc1 (stereo partly shown) [Example 1.3] | 134
CC(=O)NC1CCN(C(=O)N[C@@H](C)c2ccc(OC3CCN(c4ccc(OCC5CC5(F)F)cn4)C3)cc2)CC1 (stereo partly shown) [Example 3.11] | 314
CCCOc1cc(N2CCC(Oc3ccc([C@H](C)NC(C)=O)cc3)C2)ccn1 (stereo partly shown) [Example 1.16] | 114
CCC(=O)Nc1nc(C)c(C(=O)N[C@@H](C)c2ccc(O[C@@H]3CCN(c4ccnc(NCC5CC5)c4Cl)C3)cc2)s1 [Example 1.140] | 65
CC(=O)N[C@@H](C)c1ccc(O[C@@H]2CCN(c3ccnc(OC4CCCCC4)c3)C2)cc1 [Example 9.7] | 40
C[C@H](NC(=O)C(F)F)c1ccc(OC2CCN(c3ccc(OCC4CC4(F)F)cn3)C2)cc1 (stereo partly shown) [Example 2.60] | 35

Compound | IC50 [nM]
Cc1nc(N)sc1C(=O)N[C@@H](C)c1ccc(O[C@@H]2CCN(c3ccc(OCC4CC4(F)F)cn3)C2)cc1 (stereo partly drawn) [Example 13, 2-Amino-N—((1S)-1-(4-((3R)-1-(5-((2,2-difluorocyclopropyl)methoxy)pyridin-2-yl)pyrrolidin-3-yloxy)phenyl)ethyl)-4-methylthiazole-5-carboxamide] | 240
CCC(=O)N[C@@H](C)c1ccc(OC2CCN(c3ccnc(OCC(F)F)c3)C2)cc1 (stereo partly shown) [Example 2.106] | 88
CC(C)Oc1cc(N2CCC(Oc3ccc([C@H](C)NC(=O)C4(C#N)CC4)cc3)C2)ccn1 (stereo partly shown) [Example 2.27] | 571
CC(=O)N[C@@H](C)c1ccc(O[C@@H]2CCN(c3ccnc(OC(C)C)c3F)C2)cc1 [Example 9.83] | 80
C[C@H](NC(=O)c1cncs1)c1ccc(O[C@@H]2CCN(c3ccnc(OC4CCOC4)c3)C2)cc1 (stereo partly shown) [Example 9.65] | 85
CC(=O)N[C@@H](C)c1ccc(O[C@@H]2CCN(c3ccnc(OC4CCCC4)c3F)C2)cc1 [Example 9.84] | 45
CC(=O)N[C@@H](C)c1ccc(O[C@@H]2CCN(c3ccnc(OCC(F)F)c3OCC(F)F)C2)cc1 [Example 9.66] | 615
C[C@H](NC(=O)CC#N)c1ccc(OC2CCN(c3ccnc(OCC4CC4)c3)C2)cc1 (stereo partly shown) [Example 2.71] | 110
CC(=O)N[C@@H](C)c1ccc(O[C@@H]2CCN(c3ccnc(C4CC4)c3F)C2)cc1 [Example 15, N—((S)-1-(4-((R)-1-(2-cyclopropyl-fluoropyridin-4-yl)pyrrolidin-3-yloxy)phenyl)-ethyl)-acetamide] | 245
CC(=O)N[C@@H](C)c1ccc(O[C@@H]2CCN(c3cccc(N(C)C)n3)C2)cc1 [Example 10.1, N—((S)-1-(4-((R)-1-(6-(Dimethylamino)pyridin-2-yl)pyrrolidin-3-yloxy)phenyl)ethyl)acetamide] | 145
CCCNc1nccc(N2CCC(Oc3ccc([C@H](C)NC(=O)N(C)C)cc3)C2)c1F (stereo partly shown) [Example 5.6] | 36
C[C@H](NC(=O)C1CC1)c1ccc(OC2CCN(c3ccc(OC[C@H]4CC4(F)F)cn3)C2)cc1 (stereo partly shown) [Example 2.94] | 84
CC(=O)N[C@@H](C)c1ccc(O[C@@H]2CCN(c3ccnc(N(C)C)c3F)C2)cc1 [Example 10.17] | 97
C[C@H](NC(=O)c1cnn(C)c1N)c1ccc(OC2CCN(c3ccnc(OCC4CC4)c3)C2)cc1 (stereo partly shown) [Example 2.82] | 300
CC(C)Oc1cc(N2CCC(Oc3ccc([C@H](C)NC(=O)c4ccoc4)cc3)C2)ccn1 (stereo partly shown) [Example 2.20] | 110
CC(C)Oc1cc(N2CCC(Oc3ccc([C@H](C)NC(=O)c4ccco4)cc3)C2)ccn1 (stereo partly shown) [Example 2.18] | 862
COC1CCCN(c2cccc(N3CC[C@@H](Oc4ccc([C@H](C)NC(C)=O)cc4)C3)n2)C1 (stereo partly shown) [Example 10.37] | 325
C[C@H](NC(=O)C1CC1)c1ccc(OC2CCN(c3ccc(OCC4CC4(F)F)cn3)C2)cc1 (stereo partly shown) [Example 2.56] | 175
